Three compounds from ChEMBL document CHEMBL4261648, “Lobaric acid and pseudodepsidones inhibit NF-κB signaling pathway by activation of PPAR-γ” (Bioorg Med Chem, 2018) can be followed below.

Activity calls are given as the source filed them. The rule behind the calls is not given here.

A short description of data set [1]: Cytotoxicity against PMA-differentiated human U937 macrophages assessed as cell viability at 80 uM after 24 hrs by MTT assay relative to untreated control. It counts as cell-based, U-937. The following applies: read-out: Activity.
Data set [2] can be described thus: Cytotoxicity against PMA-differentiated human U937 macrophages assessed as cell viability at 40 uM after 24 hrs by MTT assay relative to untreated control. It counts as cell-based, U-937. As to conditions: read-out: Activity.
The nature of data set [3]: Cytotoxicity against PMA-differentiated human U937 macrophages assessed as cell viability at 20 uM after 24 hrs by MTT assay relative to untreated control. It counts as cell-based, U-937. As to conditions: read-out: Activity.
A short description of data set [4]: Cytotoxicity against PMA-differentiated human U937 macrophages assessed as cell viability at 10 uM after 24 hrs by MTT assay relative to untreated control. The data set is classed as cell-based, U-937. The following applies: read-out: Activity.
Data set [5] concerns the target Toll-like receptor 4 (Homo sapiens) (UniProt O00206). As to the kind of experiment: Inhibition of TLR4 in human U937-3xkappaB-LUC cells assessed as inhibition of Aggregatibacter actinomycetemcomitans LPS-induced NF-kappaB activation at 50 uM preincubated for 30 mins followed by LPS stimulation and measured after 6 hrs post LPS challenge by Bright-Glo luciferase reporter gene assay relative to control.

Data set [6] shares this target. As to the kind of experiment: Inhibition of TLR4 in human U937-3xkappaB-LUC cells assessed as inhibition of Aggregatibacter actinomycetemcomitans LPS-induced NF-kappaB activation at 20 uM preincubated for 30 mins followed by LPS stimulation and measured after 6 hrs post LPS challenge by Bright-Glo luciferase reporter gene assay relative to control.
Data set [7] has the same target. Description: Inhibition of TLR4 in human U937-3xkappaB-LUC cells assessed as inhibition of Aggregatibacter actinomycetemcomitans LPS-induced NF-kappaB activation at 10 uM preincubated for 30 mins followed by LPS stimulation and measured after 6 hrs post LPS challenge by Bright-Glo luciferase reporter gene assay relative to control.
The target is the same in data set [8]. Description: Inhibition of TLR4 in human U937-3xkappaB-LUC cells assessed as inhibition of Aggregatibacter actinomycetemcomitans LPS-induced NF-kappaB activation at 5 uM preincubated for 30 mins followed by LPS stimulation and measured after 6 hrs post LPS challenge by Bright-Glo luciferase reporter gene assay relative to control.
For data set [9] the target is unchanged. As to the kind of experiment: Inhibition of TLR4 in human U937-3xkappaB-LUC cells assessed as inhibition of Aggregatibacter actinomycetemcomitans LPS-induced NF-kappaB activation preincubated for 30 mins followed by LPS stimulation and measured after 6 hrs post LPS challenge by Bright-Glo luciferase reporter gene assay relative to control.
Data set [10] deals with U-937. Description: Antiinflammatory activity in PMA-differentiated human U937 cells assessed as inhibition of LPS-induced TNFalpha secretion at 80 uM preincubated for 2 hrs followed by LPS stimulation and measured after 24 hrs post LPS challenge by ELISA relative to control. The data set is classed as functional.
The test system of data set [11] is U-937. As to the kind of experiment: Antiinflammatory activity in PMA-differentiated human U937 cells assessed as inhibition of LPS-induced TNFalpha secretion at 40 uM preincubated for 2 hrs followed by LPS stimulation and measured after 24 hrs post LPS challenge by ELISA relative to control. It counts as functional.
For data set [12], the system named is U-937. As to the kind of experiment: Antiinflammatory activity in PMA-differentiated human U937 cells assessed as inhibition of LPS-induced TNFalpha secretion at 20 uM preincubated for 2 hrs followed by LPS stimulation and measured after 24 hrs post LPS challenge by ELISA relative to control. The data set is classed as functional.
Data set [13] concerns U-937. Description: Antiinflammatory activity in PMA-differentiated human U937 cells assessed as inhibition of LPS-induced TNFalpha secretion at 10 uM preincubated for 2 hrs followed by LPS stimulation and measured after 24 hrs post LPS challenge by ELISA relative to control. The data set is classed as functional.
Data set [14] deals with U-937. As to the kind of experiment: Antiinflammatory activity in human U937 cells assessed as inhibition of LPS-induced IL-6 production at 10 to 80 uM preincubated for 2 hrs followed by LPS stimulation and measured after 24 hrs post LPS challenge by ELISA. The data set is classed as functional, cell-based.
Data set [15] deals with U-937. Description: Antiinflammatory activity in human U937 cells assessed as inhibition of LPS-induced IL-1beta production at 10 to 80 uM preincubated for 2 hrs followed by LPS stimulation and measured after 24 hrs post LPS challenge by ELISA. It counts as functional, cell-based.
For data set [16], the system named is U-937. Description: Antiinflammatory activity in human U937 cells assessed as inhibition of LPS-induced IL-8 production preincubated for 2 hrs followed by LPS stimulation and measured after 24 hrs post LPS challenge by ELISA. It counts as functional.
Data set [17] concerns U-937. As to the kind of experiment: Antiinflammatory activity in human U937 cells assessed as inhibition of LPS-induced IL-1beta secretion preincubated for 2 hrs followed by LPS stimulation and measured after 24 hrs post LPS challenge by ELISA. The data set is classed as functional.
In data set [18] the test system is U-937. Description: Antiinflammatory activity in human U937 cells assessed as inhibition of LPS-induced IL-6 production preincubated for 2 hrs followed by LPS stimulation and measured after 24 hrs post LPS challenge by ELISA. The data set is classed as functional.
Data set [19] relates to U-937. As to the kind of experiment: Antiinflammatory activity in PMA-differentiated human U937 cells assessed as inhibition of LPS-induced TNFalpha secretion preincubated for 2 hrs followed by LPS stimulation and measured after 24 hrs post LPS challenge by ELISA relative to control. The data set is classed as functional.
The subject of data set [20] is U-937. As to the kind of experiment: Antiinflammatory activity in human U937 cells assessed as inhibition of LPS-induced IL-6 production at 40 to 80 uM preincubated for 2 hrs followed by LPS stimulation and measured after 24 hrs post LPS challenge by ELISA. The data set is classed as functional, cell-based.
Data set [21] deals with U-937. Description: Antiinflammatory activity in human U937 cells assessed as inhibition of LPS-induced IL-8 production at 40 to 80 uM preincubated for 2 hrs followed by LPS stimulation and measured after 24 hrs post LPS challenge by ELISA. It counts as functional, cell-based.
Data set [22] concerns U-937. As to the kind of experiment: Antiinflammatory activity in human U937 cells assessed as inhibition of LPS-induced IL-8 production at 10 to 20 uM preincubated for 2 hrs followed by LPS stimulation and measured after 24 hrs post LPS challenge by ELISA. It counts as functional, cell-based.
Data set [23] has as its system U-937. Description: Antiinflammatory activity in human U937 cells assessed as inhibition of LPS-induced IL-1beta production preincubated for 2 hrs followed by LPS stimulation and measured after 24 hrs post LPS challenge by ELISA. The data set is classed as functional, cell-based.
Data set [24] has as its system U-937. Description: Antiinflammatory activity in human U937 cells assessed as inhibition of LPS-induced IL-1beta production at 20 uM preincubated for 2 hrs followed by LPS stimulation and measured after 24 hrs post LPS challenge by ELISA. The data set is classed as functional, cell-based.
In data set [25] the test system is U-937. Description: Antiinflammatory activity in human U937 cells assessed as inhibition of Escherichia coli LPS-induced IL-1beta secretion at 10 to 80 uM preincubated for 2 hrs followed by LPS stimulation and measured after 24 hrs post LPS challenge by ELISA. It counts as functional, cell-based.
Data set [26] has as its system U-937. As to the kind of experiment: Antiinflammatory activity in human U937 cells assessed as inhibition of Escherichia coli LPS-induced TNFalpha secretion at 10 to 80 uM preincubated for 2 hrs followed by LPS stimulation and measured after 24 hrs post LPS challenge by ELISA. It counts as functional, cell-based.
Data set [27] concerns the target Toll-like receptor 4 (Homo sapiens) (UniProt O00206). As to the kind of experiment: Inhibition of TLR4 in human U937-3xkappaB-LUC cells assessed as inhibition of Escherichia coli LPS-induced NF-kappaB activation at 5 to 50 uM preincubated for 30 mins followed by LPS stimulation and measured after 6 hrs post LPS challenge by Bright-Glo luciferase reporter gene assay relative to control.

For data set [28], the system named is U-937. Description: Antiinflammatory activity in human U937 cells assessed as inhibition Aggregatibacter actinomycetemcomitans LPS-induced IL-1beta secretion at 10 to 80 uM preincubated for 2 hrs followed by LPS stimulation and measured after 24 hrs post LPS challenge by ELISA. It counts as functional, cell-based.
Data set [29] deals with U-937. As to the kind of experiment: Antiinflammatory activity in human U937 cells assessed as inhibition Aggregatibacter actinomycetemcomitans LPS-induced TNFalpha secretion at 10 to 80 uM preincubated for 2 hrs followed by LPS stimulation and measured after 24 hrs post LPS challenge by ELISA. It counts as functional, cell-based.
The target of data set [30] is Toll-like receptor 4 (Homo sapiens) (UniProt O00206). As to the kind of experiment: Inhibition of TLR4 in human U937-3xkappaB-LUC cells assessed as inhibition of Aggregatibacter actinomycetemcomitans LPS-induced NF-kappaB activation at 5 to 50 uM preincubated for 30 mins followed by LPS stimulation and measured after 6 hrs post LPS challenge by Bright-Glo luciferase reporter gene assay relative to control.

Data set [31] concerns the target T1, Peroxisome proliferator-activated receptor gamma (Homo sapiens) (UniProt P37231).
T1 sequence (whole entry): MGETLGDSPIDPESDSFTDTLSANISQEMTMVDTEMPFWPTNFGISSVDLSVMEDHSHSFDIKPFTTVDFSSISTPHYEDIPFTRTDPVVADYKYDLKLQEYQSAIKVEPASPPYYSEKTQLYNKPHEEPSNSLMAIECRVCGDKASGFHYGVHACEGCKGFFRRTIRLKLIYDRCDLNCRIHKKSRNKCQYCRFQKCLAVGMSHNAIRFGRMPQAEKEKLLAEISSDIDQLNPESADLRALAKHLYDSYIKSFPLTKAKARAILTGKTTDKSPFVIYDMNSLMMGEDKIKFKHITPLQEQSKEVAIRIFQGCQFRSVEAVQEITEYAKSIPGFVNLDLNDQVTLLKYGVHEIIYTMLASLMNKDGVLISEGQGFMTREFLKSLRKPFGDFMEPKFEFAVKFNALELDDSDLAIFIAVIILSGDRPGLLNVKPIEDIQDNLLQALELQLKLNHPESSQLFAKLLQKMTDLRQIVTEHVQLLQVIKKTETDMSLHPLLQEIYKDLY
Description: Binding affinity to recombinant human PPARgamma LBD at 40 uM by TR-FRET based green polar-screen PPAR competitor assay.

Toll-like receptor 4 (Homo sapiens), sequence (O00206 whole entry): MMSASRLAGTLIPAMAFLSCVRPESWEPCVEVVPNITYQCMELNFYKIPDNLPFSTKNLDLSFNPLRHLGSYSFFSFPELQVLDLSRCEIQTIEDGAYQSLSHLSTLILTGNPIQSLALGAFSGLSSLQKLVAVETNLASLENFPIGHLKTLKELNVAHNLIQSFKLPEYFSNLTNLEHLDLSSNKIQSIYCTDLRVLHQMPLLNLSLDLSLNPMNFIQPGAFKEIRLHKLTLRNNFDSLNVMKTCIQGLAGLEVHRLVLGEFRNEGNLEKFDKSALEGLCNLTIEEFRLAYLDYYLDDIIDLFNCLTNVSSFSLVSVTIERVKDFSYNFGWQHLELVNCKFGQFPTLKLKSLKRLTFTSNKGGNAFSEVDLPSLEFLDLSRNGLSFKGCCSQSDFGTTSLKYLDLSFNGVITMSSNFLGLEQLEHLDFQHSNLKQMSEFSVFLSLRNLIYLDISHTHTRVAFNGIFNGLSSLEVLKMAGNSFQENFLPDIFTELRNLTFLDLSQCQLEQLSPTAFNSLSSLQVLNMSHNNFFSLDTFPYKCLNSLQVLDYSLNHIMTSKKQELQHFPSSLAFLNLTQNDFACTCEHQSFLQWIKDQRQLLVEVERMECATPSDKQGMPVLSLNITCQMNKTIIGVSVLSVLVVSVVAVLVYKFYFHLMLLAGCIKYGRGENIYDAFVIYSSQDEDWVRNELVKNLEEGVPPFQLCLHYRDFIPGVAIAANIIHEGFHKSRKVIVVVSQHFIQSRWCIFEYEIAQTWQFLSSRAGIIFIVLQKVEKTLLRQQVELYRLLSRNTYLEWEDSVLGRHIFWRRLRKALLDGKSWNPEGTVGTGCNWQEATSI

Turning to `CCC/C=C1\OC(=O)c2cc(Oc3c(O)cc(O)cc3CCCCC)c(OC)cc21`, the viability at 24 h, 80 µM in [1] amounted to 10%. The viability at 24 h, 40 µM in [2] was found to be 38%. Further, the viability at 24 h, 20 µM in data set [3] turned out to be 101%. Further, in data set [4], the viability at 24 h, 10 µM was 117%. Also, the inhibition is 99% in data set [5]; 60% in data set [6]; 28% in data set [7]; 26% in data set [8]; “Dose-dependent effect” in data set [9]. For the same compound, the inhibition at 80 µM with U-937 [10] was 100%. Further, the inhibition at 40 µM in the data set with U-937 [11] turned out to be 90%. Further, the inhibition at 20 µM with U-937 [12] stood at 0%. Further, in the data set on U-937 [13], the inhibition at 10 µM amounted to 0%. Besides, the inhibition entry with U-937 [14] and in the data set on U-937 [15] was “inactive” throughout.

`Cc1ccc(S(=O)(=O)/C=C/C#N)cc1`: the inhibition in [9] was 99.3%. The “inhibition (INH)” value turned out to be 99.1% in the data set with U-937 [16], 95.9% in the data set on U-937 [17], 99.2% in the data set on U-937 [18] and 99.5% in the data set with U-937 [19].

For `CCCCCc1c(Oc2cc(OC)cc(C(=O)CCCC)c2C(=O)OC)c(O)cc(O)c1C(=O)O`, the viability at 24 h, 80 µM in data set [1] was 48%. For the same compound, the viability at 24 h, 40 µM in [2] amounted to 67%. The viability at 24 h, 20 µM in data set [3] is 86%. Moreover, in data set [4], the viability at 24 h, 10 µM is 96%. Besides, the inhibition is 98% in data set [5]; 75% in [6]; 52% in data set [7]; 37% in [8]; “Dose-dependent effect” in [9]; “Dose-dependent effect” in the data set with U-937 [23]. Further, in the data set with U-937 [10], the inhibition at 80 µM turned out to be 100%. Further, in the data set on U-937 [11], the inhibition at 40 µM was 55%. In addition, the inhibition at 20 µM in the data set with U-937 [12] amounted to 0%. In addition, in the data set with U-937 [13], the inhibition at 10 µM is 0%. Also, the inhibition result (in the data set with U-937 [20]; in the data set with U-937 [21]; with U-937 [25]; in the data set with U-937 [26]; in data set [27]; in the data set with U-937 [28]) was “Active” each time. Besides, the inhibition entry (in the data set on U-937 [29]; in data set [30]) was “Active” each time. The inhibition result with U-937 [22] and with U-937 [24] was “inactive” each time. Moreover, in data set [31], the result was Active.
